Structures are written as SMILES. Where two headings read alike, the source gives them in different places.

The nature of data set [1]: clinical. The conditions noted are these: both, human, plasma, oral, 50 mg.
For data set [2] the following is noted: for AUC(0-inf) / Cmax / half-life / AUC(0-t): both, human, plasma; for AUC(0-inf) / Cmax / half-life: oral; for AUC(0-t): po.
Data set [3] relates to CYP3A4. The settings on record: cited from earlier work.
Data set [4] concerns CYP3A4. The settings on record: cited from earlier work. The source holds these as a separate data set.
Data set [5] concerns CYP1A2. The settings on record: single dose of 50 mg osilodrostat.
For data set [6], the target named is CYP2D6 (Homo sapiens, UniProt P10635). The conditions noted are these: single dose of 50 mg osilodrostat.
Chain of CYP2D6 (P10635 whole entry): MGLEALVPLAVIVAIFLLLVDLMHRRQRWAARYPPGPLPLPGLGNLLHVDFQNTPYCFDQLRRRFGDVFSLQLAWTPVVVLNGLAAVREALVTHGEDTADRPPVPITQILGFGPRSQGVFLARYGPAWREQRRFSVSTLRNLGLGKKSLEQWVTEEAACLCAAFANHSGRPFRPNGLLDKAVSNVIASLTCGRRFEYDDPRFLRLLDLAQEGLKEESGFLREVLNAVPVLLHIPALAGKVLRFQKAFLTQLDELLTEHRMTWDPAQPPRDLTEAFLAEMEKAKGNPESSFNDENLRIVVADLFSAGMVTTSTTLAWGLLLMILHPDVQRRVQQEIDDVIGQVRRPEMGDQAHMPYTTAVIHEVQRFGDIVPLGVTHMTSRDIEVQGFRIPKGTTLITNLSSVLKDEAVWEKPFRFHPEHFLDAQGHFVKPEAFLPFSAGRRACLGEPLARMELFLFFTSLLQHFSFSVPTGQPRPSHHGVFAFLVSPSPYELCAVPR
The subject of data set [7] is CYP3A4/5. The conditions noted are these: single dose of 50 mg osilodrostat.
For data set [8] the following is noted: safety set, 20 subjects.
A short description of data set [9]: clinical. The settings on record: both, human, plasma, po, 50 mg.
For data set [10] the following is noted: cited from earlier work.
For data set [11], the system named is urinary free cortisol (UFC). The settings on record: 2–30 mg twice daily, 10 weeks, 11/12 patients with Cushing’s disease; cited from earlier work.
Data set [12] has as its system urinary free cortisol (UFC). The conditions noted are these: after 22 weeks of treatment, 15/19 patients; cited from earlier work.
Setting [13] is: substrate alone, geometric mean (CV%).
[14] abbreviates: C max, substrate alone, geometric mean (CV%).

The AUC(0-inf) is the area under the concentration-time curve extrapolated to infinity. Lower therefore signals less exposure. A word on the AUC(0-t): it is exposure summed from dosing to a finite time, without extrapolation to infinity. Broadly, the Cmax is the maximum level reached in the sampled fluid or tissue. In general, half-life refers to the time in which the quantity being followed falls by half. In [1], `Cn1c(=O)c2c(ncn2C)n(C)c1=O` [Caffeine, caffeine] gave an AUC(0-inf) of 41900 ng·h/mL, an AUC(0-t) of 41100 ng·h/mL, a Cmax of 2640 ng/mL and a half-life of 7.39 h. In data set [2], this compound gave an AUC(0-inf) of 16200 ng·h/mL, a Cmax of 2500 ng/mL, a half-life of 5.39 h and an AUC(0-t) of 17200 ng·h/mL. For the same compound, the CL/F in data set [2] (setting [13]) is 6.18 (44.8) L/h.
For `COc1ccc2c(c1)[C@]13CCCC[C@@H]1[C@H](C2)N(C)CC3` [Dextromethorphan, dextromethorphan], in [2], the AUC(0-inf) was 22.8 ng·h/mL and the half-life was 7.63 h. The highest concentration (Cmax) in [2] (setting [14]) turned out to be 1.24 ng/mL. Also, the CL/F in data set [2] (setting [13]) is reported as 1310 (193.8) L/h.
For the compound `CC(=O)N1CCN(c2ccc(OCC3COC(Cn4ccnc4)(c4ccc(Cl)cc4Cl)O3)cc2)CC1` (stereo not drawn) [Ketoconazole, ketoconazole], in data set [3] (based on midazolam AUC change), the “FDA inhibitor classification, CYP3A4” value is listed as “strong inhibitor (strong inhibitor, ≥5-fold increase in AUC)”. Also, in [3], the “increase in midazolam AUC after ketoconazole administration” value is on record as at most 16 fold.
In data set [1], `Cc1ncc2n1-c1ccc(Cl)cc1C(c1ccccc1F)=NC2` [Midazolam, midazolam] showed an AUC(0-t) of 31.7 ng·h/mL, a maximum concentration (Cmax) of 12.8 ng/mL and a half-life of 4.81 h. Also, in data set [2], the AUC(0-inf) was 22 ng·h/mL and the half-life was 4.44 h. Moreover, the Cmax in data set [2] (setting [14]) was found to be 8.78 ng/mL. For the same compound, the CL/F in data set [2] (setting [13]) is listed as 91.0 (39.6) L/h.
Take `Clc1ccc(C(c2ccccc2Cl)C(Cl)Cl)cc1` (stereo not drawn) [Mitotane, mitotane]: the “CYP3A4 induction” value in data set [4] is reported as “strong inducer”.
In the case of `COc1ccc2[nH]c([S+]([O-])Cc3ncc(C)c(OC)c3C)nc2c1` (stereo not drawn) [Omeprazole, omeprazole], in data set [1], the AUC(0-inf) was determined as 885 ng·h/mL, the AUC(0-t) stood at 852 ng·h/mL and the Cmax is 420 ng/mL. In [2], this compound had an AUC(0-inf) of 618 ng·h/mL, a half-life of 0.77 h and an AUC(0-t) of 460 ng·h/mL. Besides, in data set [2] (setting [13]), the C max is 271 (69.7) ng/mL and the CL/F was 32.3 (92.9) L/h.
For orientation: Tmax means the time at which the peak concentration occurs. As for `N#Cc1ccc([C@H]2CCc3cncn32)c(F)c1` [Osilodrostat], the “FDA inhibitor classification, CYP1A2” value in [5] is listed as “moderate inhibitor (moderate inhibitor, ≥2- but <5-fold increase in AUC)”. The “FDA inhibitor classification, CYP2D6” value in data set [6] was “weak inhibitor (weak inhibitor, ≥1.25- but <2-fold increase in AUC)”. The “FDA inhibitor classification, CYP3A4/5” value in data set [7] was “weak inhibitor (weak inhibitor, ≥1.25- but <2-fold increase in AUC)”. In data set [8], the “fatigue (suspected drug related)” value is 15%; the “flatulence and diarrhea (suspected drug related)” value turned out to be 5%; the “grade 3 or 4 AEs or serious AEs” value is recorded as “No grade 3 or 4 AEs, or serious AEs”; the “subjects with AEs suspected to be drug related” value is recorded as 30%. For the same compound, in [9], the AUC(0-inf) was 3430 ng·h/mL, the peak level (Cmax) was 392 ng/mL, the Tmax is around 1.53 h and the half-life is 4.73 h. Further, in [10], the half-life is 3 to 5 h. In data set [11], the “patients with normalized UFC” value is 92%. For the same compound, the “patients with normalized UFC” value in data set [12] is reported as 79%.
